In patent publication US9586961B2, “Homopiperazine derivatives as protein tyrosine kinase inhibitors and pharmaceutical use thereof” (LEO PHARMA A/S, priority 2010, dated 2017) one finds EC50 data, which are given here for 17 compounds.

Molecules are shown by their SMILES.

Holding throughout (type): biochemical
One assay deals with T1, JAK1 (Homo sapiens, UniProt P23458).
T1 construct: JAK1 (aa 850-1154) and TYK2 (aa 871-1187) are expressed with an N-terminally fused GST-tag; GST (N); purchased Carna Biosciences, Inc; host or cells: baculovirus expression system
T1 sequence (P23458 850-1154): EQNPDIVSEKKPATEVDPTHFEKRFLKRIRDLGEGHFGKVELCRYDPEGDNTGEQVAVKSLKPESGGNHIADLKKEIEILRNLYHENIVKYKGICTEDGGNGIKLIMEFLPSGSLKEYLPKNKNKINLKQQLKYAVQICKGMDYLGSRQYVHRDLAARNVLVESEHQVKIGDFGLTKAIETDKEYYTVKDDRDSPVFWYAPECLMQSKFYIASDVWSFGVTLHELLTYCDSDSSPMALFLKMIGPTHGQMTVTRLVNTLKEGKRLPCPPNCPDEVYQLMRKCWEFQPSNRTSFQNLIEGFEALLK
The assay can be described thus: JAK1 kinase assay (HTRF, inhibition of phosphorylation of a synthetic peptide). Conditions: catalytic domain aa 850-1154, GST-tag; 7 μM ATP (Km); read-out: JAK1 kinase inhibitory activity (EC50). The essentials: (§1)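 Baculovirus-expressed human catalytic domains (GST-JAK1, GST-TYK2, His-JAK2, His-JAK3) phosphorylated 1 μM TK substrate-biotin at ATP Km (JAK1 7 μM, JAK2 4 μM, JAK3 2 μM, TYK2 13 μM) in pH 7.0 Hepes for 20-30 min at RT, 0.75% DMSO. EDTA stop, then overnight streptavidin-XL665/cryptate-antibody detection and HTRF read.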

Another assay has as its target T2, JAK2 (Homo sapiens, UniProt O60674).
T2 construct: All four purified enzymes contain only the catalytic domain; His (N); purchased Carna Biosciences, Inc; host or cells: baculovirus expression system
The assay can be described thus: JAK2 kinase assay (HTRF, inhibition of phosphorylation of a synthetic peptide). The settings on record: catalytic domain, His-tag; 4 μM ATP (Km); read-out: JAK2 kinase inhibitory activity (EC50). The essentials:
as §1

For the next assay, the target named is T3, JAK3 (Homo sapiens, UniProt P52333).
T3 construct: All four purified enzymes contain only the catalytic domain; His (N); purchased Carna Biosciences, Inc; host or cells: baculovirus expression system
T3 sequence (P52333 822-1111 limits assumed): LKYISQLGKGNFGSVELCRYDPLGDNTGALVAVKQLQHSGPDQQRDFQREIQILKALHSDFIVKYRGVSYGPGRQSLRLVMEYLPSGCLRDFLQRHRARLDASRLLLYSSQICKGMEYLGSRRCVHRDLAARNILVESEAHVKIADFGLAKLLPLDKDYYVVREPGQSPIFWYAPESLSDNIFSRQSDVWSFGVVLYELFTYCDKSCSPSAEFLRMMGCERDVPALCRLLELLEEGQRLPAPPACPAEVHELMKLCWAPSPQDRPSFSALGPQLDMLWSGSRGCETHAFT
The assay can be described thus: JAK3 kinase assay (HTRF, inhibition of phosphorylation of a synthetic peptide). The settings on record: catalytic domain, His-tag; 2 μM ATP (Km); read-out: JAK3 kinase inhibitory activity (EC50). The essentials: as §1
(In TR-FRET formats the signal depends on donor and acceptor labels being close together.)

A further assay deals with T4, TYK2 (Homo sapiens, UniProt P29597).
T4 construct: JAK1 (aa 850-1154) and TYK2 (aa 871-1187) are expressed with an N-terminally fused GST-tag; GST (N); purchased Carna Biosciences, Inc; host or cells: baculovirus expression system
T4 sequence (P29597 871-1187): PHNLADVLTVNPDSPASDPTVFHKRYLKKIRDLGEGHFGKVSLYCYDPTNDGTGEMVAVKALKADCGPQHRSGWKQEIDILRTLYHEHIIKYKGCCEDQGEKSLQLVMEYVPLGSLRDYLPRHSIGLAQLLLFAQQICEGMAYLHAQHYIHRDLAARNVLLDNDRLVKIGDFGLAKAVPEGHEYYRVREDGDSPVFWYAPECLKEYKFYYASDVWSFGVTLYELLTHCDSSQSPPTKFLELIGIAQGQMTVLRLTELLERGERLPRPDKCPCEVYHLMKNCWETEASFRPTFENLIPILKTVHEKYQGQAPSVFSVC
The assay can be described thus: TYK2 kinase assay (HTRF, inhibition of phosphorylation of a synthetic peptide). The settings on record: catalytic domain aa 871-1187, GST-tag; 13 μM ATP (Km); read-out: TYK2 kinase inhibitory activity (EC50). The method, then: JAK1, JAK2, JAK3 and TYK2 Kinase Assays:
Human baculovirus-expressed JAK1, 2, 3 and TYK2 were purchased from Carna Biosciences, Inc. All four purified enzymes contain only the catalytic domain. JAK1 (aa 850-1154) and TYK2 (aa 871-1187) are expressed with an N-terminally fused GST-tag, and JAK2 and JAK3 with an N-terminally fused His-tag. Inhibition of phosphorylation of a synthetic peptide was measured in an HTRF-based assay using the TK substrate-Biotin from the CisbioHTRFKinEASE TK kit. First, 2 μl of TK solution (TK substrate-biotin in kinase buffer [1× enzymatic buffer from HTRFKinEASE TK kit, 1 mM DTT]) is added to a plate containing 1 μl prediluted compound (final assay concentration DMSO: 0.75%). Then, 5 μl kinase-ATP mix (prepared in kinase buffer) is added to the wells and the plates are incubated at RT for 20-30 min. For all four kinases a concentration of ATP that corresponded to the Km for ATP was used. The final concentrations of buffers, substrate, kinase and ATP were: JAK1: 50 mMHepes buffer pH 7.0, 0.01% BSA, 10 mM MgCl2, 1 mM DTT, 7 μM ATP, 50 nMSEB, 1 μM TK Substrate-Biotin and 5 ng JAK1; JAK2: 50 mM Hepes buffer pH 7.0, 0.01% BSA, 5 mM MgCl2, 1 mM DTT, 4 μM ATP, 1 μM TK Substrate-Biotin and 0.1 ng JAK2; JAK3: 50 mMHepes buffer pH 7.0, 0.01% BSA, 5 mM MgCl2, 1 mM DTT, 2 μM ATP, 1 μM TK Substrate-Biotin and 0.3 ng JAK3; TYK2: 50 mMHepes buffer pH 7.0, 0.01% BSA, 5 mM MgCl2, 1 mM DTT, 13 μM ATP, 50 nMSEB, 1 μM TK Substrate-Biotin and 0.8 ng TYK2. Thereafter, the kinase reaction is stopped by adding 4 μl detection mix (final concentrations: 50 mM Hepes buffer pH 7.0, 0.01% BSA, 0.8 M KF, 20 mM EDTA, 42 nM Streptavidin-XL665 and 1:400 STKAbCryptate) and the plates are incubated overnight in the dark. The HTRF signal is read using an Envision plate reader.

T2 sequence (O60674 849-1124 limits assumed): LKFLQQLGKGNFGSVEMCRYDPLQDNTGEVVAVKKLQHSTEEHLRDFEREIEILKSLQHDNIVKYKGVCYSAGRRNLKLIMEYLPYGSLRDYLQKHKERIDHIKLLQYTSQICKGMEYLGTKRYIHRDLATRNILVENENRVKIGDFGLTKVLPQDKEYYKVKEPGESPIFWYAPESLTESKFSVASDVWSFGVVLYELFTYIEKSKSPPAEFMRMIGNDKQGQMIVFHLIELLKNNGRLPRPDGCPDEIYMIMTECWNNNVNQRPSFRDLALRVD

What is called EC50 is the concentration that produces a half-maximal response. As for `NS(=O)(=O)c1ccc(CCC(=O)N2CCN(c3ncnc4[nH]ccc34)CC3(CC3)C2)cc1` [Example 34, 4-[3-oxo-3-[5-(7H-pyrrolo[2,3-d]pyrimidin-4-yl)-5,8-diazaspiro[2.6]nonan-8-yl]propyl]benzenesulfonamide], the EC50 at JAK1 was less than 100 nM; on JAK2, less than 100 nM; on JAK3, less than 100 nM; at TYK2, 100 to 1000 nM.
`Cn1c(C(=O)N2CCN(c3ncnc4[nH]ccc34)CC3(CC3)C2)ccc1S(N)(=O)=O` [Example 35, 1-methyl-5-[5-(7H-pyrrolo[2,3-d]pyrimidin-4-yl)-5,8-diazaspiro[2.6]nonane-8-carbonyl]pyrrole-2-sulfonamide]: the EC50 on JAK1 was 100 to 1000 nM; at JAK2, 100 to 1000 nM; at JAK3, 100 to 1000 nM; on TYK2, more than 1000 nM.
As to `Cn1cc(S(N)(=O)=O)cc1C(=O)N1CCN(c2ncnc3[nH]ccc23)CC2(CC2)C1` [Example 36, 1-methyl-5-[5-(7H-pyrrolo[2,3-d]pyrimidin-4-yl)-5,8-diazaspiro[2.6]nonane-8-carbonyl]pyrrole-3-sulfonamide], the EC50 was 100 to 1000 nM on JAK1, 100 to 1000 nM on JAK2, 100 to 1000 nM at JAK3 and more than 1000 nM at TYK2.
For the compound `NS(=O)(=O)c1ccc(C(=O)N2CCN(c3ncnc4[nH]ccc34)CC3(CC3)C2)o1` [Example 37, 5-[5-(7H-pyrrolo[2,3-d]pyrimidin-4-yl)-5,8-diazaspiro[2.6]nonane-8-carbonyl]furan-2-sulfonamide], the half-maximal effective concentration (EC50) on JAK1 is 100 to 1000 nM; at JAK2 it was less than 100 nM; at JAK3 it was 100 to 1000 nM; at TYK2, more than 1000 nM.
For `Cc1ccc(C(=O)N2CCN(c3ncnc4[nH]ccc34)CC3(CC3)C2)cc1S(N)(=O)=O` [Example 38, 2-methyl-5-[5-(7H-pyrrolo[2,3-d]pyrimidin-4-yl)-5,8-diazaspiro[2.6]nonane-8-carbonyl]benzenesulfonamide], the EC50 at JAK1 is less than 100 nM; on JAK2 it was less than 100 nM; on JAK3, 100 to 1000 nM; at TYK2, 100 to 1000 nM.
`NS(=O)(=O)CCCC(=O)N1CCN(c2ncnc3[nH]ccc23)CC2(CC2)C1` [Example 39, 4-oxo-4-[5-(7H-pyrrolo[2,3-d]pyrimidin-4-yl)-5,8-diazaspiro[2.6]nonan-8-yl]butane-1-sulfonamide]: the concentration for a half-maximal effect (EC50) is less than 100 nM on JAK1, less than 100 nM at JAK2, less than 100 nM on JAK3 and more than 1000 nM on TYK2.
Take `N#CC1(C(=O)N2CCN(c3ncnc4[nH]ccc34)CC3(CC3)C2)CCCC1` [Example 40, 1-[5-(7H-pyrrolo[2,3-d]pyrimidin-4-yl)-5,8-diazaspiro[2.6]nonane-8-carbonyl]cyclopentanecarbonitrile]: the concentration for a half-maximal effect (EC50) at JAK1 was more than 1000 nM; on JAK2 it was 100 to 1000 nM; at JAK3, 100 to 1000 nM; at TYK2, more than 1000 nM.
In the case of `N#CC1(C(=O)N2CCN(c3ncnc4[nH]ccc34)CC3(CC3)C2)CCOCC1` [Example 41, 4-[5-(7H-pyrrolo[2,3-d]pyrimidin-4-yl)-5,8-diazaspiro[2.6]nonane-8-carbonyl]tetrahydropyran-4-carbonitrile], the half-maximal effective concentration (EC50) is more than 1000 nM at JAK1, 100 to 1000 nM on JAK2, 100 to 1000 nM on JAK3 and more than 1000 nM at TYK2.
As to `N#Cc1ccc(C(=O)N2CCN(c3ncnc4[nH]ccc34)CC3(CC3)C2)cc1F` [Example 42, 2-fluoro-4-[5-(7H-pyrrolo[2,3-d]pyrimidin-4-yl)-5,8-diazaspiro[2.6]nonane-8-carbonyl]benzonitrile], the EC50 was 100 to 1000 nM at JAK1, 100 to 1000 nM on JAK2, 100 to 1000 nM at JAK3 and more than 1000 nM on TYK2.
For `COc1cc(OC)cc(C(=O)N2CCN(c3ncnc4[nH]ccc34)CC3(CC3)C2)c1` [Example 43, (3,5-dimethoxyphenyl)-[5-(7H-pyrrolo[2,3-d]pyrimidin-4-yl)-5,8-diazaspiro[2.6]nonan-8-yl]methanone], the EC50 at JAK1, on JAK2, on JAK3 and at TYK2 was more than 1000 nM in each case.
For the compound `N#CC1(C(=O)N2CCN(c3ncnc4[nH]ccc34)CCC23CC3)CC1` [Example 44, 1-[6-(7H-pyrrolo[2,3-d]pyrimidin-4-yl)-6,9-diazaspiro[2.6]nonane-9-carbonyl]cyclopropanecarbonitrile], the EC50 was 100 to 1000 nM at JAK1, 100 to 1000 nM at JAK2, more than 1000 nM on JAK3 and more than 1000 nM at TYK2.
Take `O=C(CCC(F)(F)F)N1CCN(c2ncnc3[nH]ccc23)CCC12CC2` [Example 45, 4,4,4-trifluoro-1-[6-(7H-pyrrolo[2,3-d]pyrimidin-4-yl)-6,9-diazaspiro[2.6]nonan-9-yl]butan-1-one]: the concentration giving a half-maximal response (EC50) is 100 to 1000 nM at JAK1, 100 to 1000 nM at JAK2, 100 to 1000 nM at JAK3 and more than 1000 nM on TYK2.
As for `O=C(c1cc2ccccc2s1)N1CCN(c2ncnc3[nH]ccc23)CCC12CC2` [Example 46, benzothiophen-2-yl-[6-(7H-pyrrolo[2,3-d]pyrimidin-4-yl)-6,9-diazaspiro[2.6]nonan-9-yl]methanone], the concentration for a half-maximal effect (EC50) is 100 to 1000 nM on JAK1, 100 to 1000 nM on JAK2, more than 1000 nM at JAK3 and more than 1000 nM on TYK2.
As to `N#Cc1cccc(CC(=O)N2CCN(c3ncnc4[nH]ccc34)CCC23CC3)c1` [Example 47, 3-[2-oxo-2-[6-(7H-pyrrolo[2,3-d]pyrimidin-4-yl)-6,9-diazaspiro[2.6]nonan-9-yl]ethyl]benzonitrile], the EC50 at JAK1, at JAK2, at JAK3 and at TYK2 was more than 1000 nM each time.
Regarding `N#CCc1ccccc1C(=O)N1CCN(c2ncnc3[nH]ccc23)CCC12CC2` [Example 48, 2-[2-[6-(7H-pyrrolo[2,3-d]pyrimidin-4-yl)-6,9-diazaspiro[2.6]nonane-9-carbonyl]phenyl]acetonitrile], the 50% effective concentration (EC50) at JAK1, on JAK2, at JAK3 and on TYK2 was more than 1000 nM each time.
Take `N#CCCC(=O)N1CCN(c2ncnc3[nH]ccc23)CCC12CC2` [Example 49, 4-oxo-4-[6-(7H-pyrrolo[2,3-d]pyrimidin-4-yl)-6,9-diazaspiro[2.6]nonan-9-yl]butanenitrile]: the concentration for a half-maximal effect (EC50) at JAK1 was 100 to 1000 nM; at JAK2, 100 to 1000 nM; on JAK3, 100 to 1000 nM; at TYK2, more than 1000 nM.
Consider `O=C(c1ccc(S(=O)(=O)NCCc2cccs2)cc1)N1CCN(c2ncnc3[nH]ccc23)CC2(CC2)C1` [Example 50, 4-[5-(7H-pyrrolo[2,3-d]pyrimidin-4-yl)-5,8-diazaspiro[2.6]nonane-8-carbonyl]-N-[2-(2-thienyl)ethyl]benzenesulfonamide], for which the concentration for a half-maximal effect (EC50) at JAK1 was 100 to 1000 nM; at JAK2, 100 to 1000 nM; at JAK3, 100 to 1000 nM; at TYK2 it was more than 1000 nM.
